From publication PMC4585259 (Frontiers in Pharmacology, 2015)
pKd: −log10 of the molar value. Where two headings read alike, the source gives them in different places.

Molecular target: T1, rNav1.2 sodium channels (Rattus norvegicus, UniProt P04775)
T1 construct: host or cells: HEK-293
Assay: QPatch automated patch clamp, inhibition of sodium currents evoked by 5 Hz trains at three extracellular pH values
Format: cell-based
Settings: for class of pH-dependence pattern (cluster analysis): Ward's method on 18 variables of affinity, reversibility, onset; for τoffset / τonset: concentration (lidocaine 300 μM, memantine 30 μM)
Procedure: HEK-293 cells stably expressing rNav1.2 sodium channels were obtained from NeuroSearch (Ballerup, Denmark). The cells were grown in Dulbecco's modified Eagle medium supplemented with 10% FBS. Prior to use, the cells were trypsinized and subsequently kept in suspension in the QPatch cell storage facility in CHO-S- SFM-II medium.
Composition of the extracellular solution was: (in mM): 140 NaCl, 3 KCl, 1 CaCl2 1 MgCl2, 0.1 CdCl2, 20 TEA-Cl, 5 HEPES, adjusted to pH 7.3, Osmolality: 320 mOsm. […] Drugs were synthesized in Gedeon Richter Plc. […] The full list of drugs, with their three-letter codes, concentration, as well as their main therapeutic indication and main mechanism of action are shown in Table 1. […] The choice of concentrations used in this study may seem unusually high.
Data were sampled at a frequency of 25 kHz and filtered at 5 kHz. Junction potential was calculated to be −11 mV and was corrected for. […] Cells having membrane resistance < 500 MOhm, series resistance > 9 MOhm, or capacitance > 22 pF were excluded from analysis. The experimental protocol was also identical to the one used in our previous study: sodium channels were activated by 5 Hz trains of 5 depolarizations (−90 to −10 mV) repeated in every 20 s. In this study, however, the same control–drug-application–washout sequence was repeated four times: at neutral, acidic, alkalic, and again neutral pH. The peak amplitudes of sodium currents throughout the whole experiment are shown plotted against time in Figure 1 and Supplementary Figure 1.
Initial analysis, including subtraction of leak and capacitive artifacts, as well as peak detection were done in the QPatch software. […] All experiments were normalized to the amplitude of the current evoked by the first depolarization of the last train under control conditions. […] For all four drug applications in an experiment, apparent affinity, onset and offset time constants as well as reversibility values were calculated. […] (This method is equivalent to applying the Lineweaver-Burk plot method using a single concentration.) Reversibility values were calculated from control (c), inhibited (i), and wash-out (w) amplitudes as follows: Reversibility = (w-i)/(c-i). Reversibility values should not be regarded as experimental platform-independent properties of compounds. […] However, reversibility values are a valuable source of information regarding physicochemical differences between individual drugs, or between effects of the same drug under different extracellular pH conditions. Onset and offset time constants were determined by single exponential fitting to individual experiments. For neutral pH numerical data were given as the average of the data from the first and the last drug applications. Thin black lines on Figure 1 and Supplemental Figure 1 show the average of five fitted exponentials, (not the exponential fitted to the averaged normalized amplitudes). The numerical values of apparent affinity, onset and offset time constants and reversibility are shown in Table 2, and their relative position is illustrated in Figure 2. Affinity and time constant values were logarithmically transformed for statistics, therefore we show their geometric mean. For recovery data no transformation was done, and we show arithmetic mean values. Significance values were calculated using paired, two-tailed Student's t-test based on five pairs of apparent affinity (log transform), time constant (log transform), or reversibility values obtained from five individual experiments. Because of the large number of comparisons in this study, we accepted p < 0.01 as significant. Cluster analysis was done using Ward's minimum variance method, with Euclidean distance measure. Data were normalized by subtracting the mean (after logarithmic transformation in the case of apparent affinity and time constants), and dividing by the standard deviation.

[1] = pH 6.0, single concentration (lidocaine 300 μM, memantine 30 μM), geometric mean of 5, read-out: apparent affinity
[2] = pH 7.3, single concentration (lidocaine 300 μM, memantine 30 μM), geometric mean of 5, read-out: apparent affinity
[3] = pH 8.6, single concentration (lidocaine 300 μM, memantine 30 μM), geometric mean of 5, read-out: apparent affinity
[4] = pH=6.0, cc 300 mM, read-out: Apparent Affinity
[5] = pH=7.3, cc 300 mM, read-out: Apparent Affinity
[6] = pH=8.6, cc 300 mM, read-out: Apparent Affinity

T1 sequence (P04775 whole entry): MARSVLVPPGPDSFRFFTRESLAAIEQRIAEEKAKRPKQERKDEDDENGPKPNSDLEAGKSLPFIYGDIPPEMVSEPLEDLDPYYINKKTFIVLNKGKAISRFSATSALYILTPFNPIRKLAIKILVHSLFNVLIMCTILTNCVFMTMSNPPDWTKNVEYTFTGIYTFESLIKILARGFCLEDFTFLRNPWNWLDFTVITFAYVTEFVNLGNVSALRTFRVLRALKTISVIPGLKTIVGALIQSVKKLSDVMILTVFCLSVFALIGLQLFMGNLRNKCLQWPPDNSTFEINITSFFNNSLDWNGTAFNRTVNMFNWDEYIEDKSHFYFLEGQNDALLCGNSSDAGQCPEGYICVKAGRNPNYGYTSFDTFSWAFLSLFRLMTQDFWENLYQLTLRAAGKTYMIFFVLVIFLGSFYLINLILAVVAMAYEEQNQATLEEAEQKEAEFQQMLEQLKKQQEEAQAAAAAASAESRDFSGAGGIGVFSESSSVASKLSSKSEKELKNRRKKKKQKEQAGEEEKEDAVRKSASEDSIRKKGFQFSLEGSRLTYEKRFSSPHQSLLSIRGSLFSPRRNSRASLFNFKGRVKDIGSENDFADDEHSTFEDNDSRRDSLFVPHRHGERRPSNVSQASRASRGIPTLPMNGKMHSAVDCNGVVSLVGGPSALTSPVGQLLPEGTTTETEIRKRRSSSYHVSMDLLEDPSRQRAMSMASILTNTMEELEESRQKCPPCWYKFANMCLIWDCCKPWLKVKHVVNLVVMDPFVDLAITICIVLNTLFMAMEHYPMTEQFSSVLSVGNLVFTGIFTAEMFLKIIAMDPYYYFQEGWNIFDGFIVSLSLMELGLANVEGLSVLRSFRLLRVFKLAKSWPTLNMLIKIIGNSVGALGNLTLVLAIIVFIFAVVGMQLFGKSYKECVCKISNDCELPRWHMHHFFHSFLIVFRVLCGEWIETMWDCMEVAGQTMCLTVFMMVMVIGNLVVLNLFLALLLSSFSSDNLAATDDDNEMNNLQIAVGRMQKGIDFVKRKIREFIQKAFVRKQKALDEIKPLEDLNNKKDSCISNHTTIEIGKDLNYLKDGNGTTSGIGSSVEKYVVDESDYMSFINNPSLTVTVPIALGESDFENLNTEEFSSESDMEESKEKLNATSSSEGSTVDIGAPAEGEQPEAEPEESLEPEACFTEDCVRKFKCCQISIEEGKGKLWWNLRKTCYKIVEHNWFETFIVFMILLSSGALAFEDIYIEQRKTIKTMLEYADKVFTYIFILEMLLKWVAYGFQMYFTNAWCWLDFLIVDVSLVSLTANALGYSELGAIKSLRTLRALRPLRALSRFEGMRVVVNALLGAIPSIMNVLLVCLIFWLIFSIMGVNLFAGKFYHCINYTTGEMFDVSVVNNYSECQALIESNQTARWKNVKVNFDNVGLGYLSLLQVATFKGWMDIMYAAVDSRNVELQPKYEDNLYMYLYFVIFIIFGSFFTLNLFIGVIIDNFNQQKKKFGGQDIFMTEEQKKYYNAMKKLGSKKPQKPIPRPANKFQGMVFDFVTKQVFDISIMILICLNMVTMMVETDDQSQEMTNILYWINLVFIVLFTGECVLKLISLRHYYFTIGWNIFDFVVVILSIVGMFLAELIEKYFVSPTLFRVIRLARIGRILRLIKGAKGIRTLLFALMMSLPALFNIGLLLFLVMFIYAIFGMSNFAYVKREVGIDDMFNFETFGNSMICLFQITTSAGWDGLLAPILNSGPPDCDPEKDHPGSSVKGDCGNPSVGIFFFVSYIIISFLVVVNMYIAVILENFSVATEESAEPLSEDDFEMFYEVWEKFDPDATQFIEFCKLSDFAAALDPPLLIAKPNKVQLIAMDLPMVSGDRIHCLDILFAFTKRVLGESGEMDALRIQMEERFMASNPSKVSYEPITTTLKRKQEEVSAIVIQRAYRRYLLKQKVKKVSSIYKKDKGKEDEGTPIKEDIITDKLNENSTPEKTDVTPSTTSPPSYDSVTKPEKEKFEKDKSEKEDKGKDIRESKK

class of pH-dependence pattern (cluster analysis) | Ratio Reversibility (pH 6.0/7.3, cc 300 mM) | Ratio Tau Offset (pH 6.0/7.3, cc 300 mM) | Ratio Tau Onset (pH 6.0/7.3, cc 300 mM) | log Ratio App Aff (pH 6.0/7.3, cc 300 mM) | Ratio Reversibility (pH 6.0/8.6, cc 300 mM) | Ratio Tau Offset (pH 6.0/8.6, cc 300 mM) | Ratio Tau Onset (pH 6.0/8.6, cc 300 mM) | log Ratio App Aff (pH 6.0/8.6, cc 300 mM) | τoffset (pH 6.0) | τonset (pH 6.0) | pKd [1] | Ratio Reversibility (pH 7.3/8.6, cc 300 mM) | Ratio Tau Offset (pH 7.3/8.6, cc 300 mM) | τoffset (pH 7.3) | τonset (pH 7.3) | pKd [2] | τoffset (pH 8.6) | τonset (pH 8.6) | pKd [3] | Compound | other results
Class A | 0.728 | 1.229 | 0.800 | -0.028 | 0.955 | 1.490 | 0.800 | 0.00109 | 12.30 s | 4.00 s | 3.26 | 1.312 | 1.212 | 10.01 s | 5.00 s | 3.24 | 8.25 s | 5.00 s | 3.27 | NC(=O)N1c2ccccc2C=Cc2ccccc21 [carbamazepine] | Ratio Tau Onset (pH 7.3/8.6, cc 300 mM): 1.000; log Ratio App Aff (pH 7.3/8.6, cc 300 mM): 0.029; Reversibility (pH=6.0, cc 300 mM): 0.67; pKd [4]: 3.26; Reversibility (pH=7.3, cc 300 mM): 0.92; pKd [5]: 3.24; Reversibility (pH=8.6, cc 300 mM): 0.70; pKd [6]: 3.27
Class C | – | – | – | – | – | – | – | – | 56.80 s | 65.77 s | – | – | – | 57.40 s | 44.40 s | – | 59.00 s | 26.92 s | – | CNCCCN1c2ccccc2CCc2ccccc21 [desipramine] | effect of alkalic pH on onset/offset kinetics (in words): acceleration of onset; Reversibility (pH=6.0, cc 30 mM): 0.64; Reversibility (pH=7.3, cc 30 mM): 0.42; Reversibility (pH=8.6, cc 30 mM): 0.11
Class B | 1.142 | 1.344 | 2.358 | 0.419 | 2.794 | 3.109 | 7.632 | 0.583 | 91.40 s | 58.00 s | 4.17 | 2.446 | 2.313 | 68.00 s | 24.60 s | 4.59 | 29.40 s | 7.60 s | 4.75 | O=C(NCC1CCCCN1)c1cc(OCC(F)(F)F)ccc1OCC(F)(F)F (centres unmarked) [flecainide] | effect of alkalic pH on onset/offset kinetics (in words): significant acceleration of both onset and offset; Ratio Tau Onset (pH 7.3/8.6, cc 300 mM): 3.237; log Ratio App Aff (pH 7.3/8.6, cc 300 mM): 0.164; Reversibility (pH=6.0, cc 300 mM): 0.64; pKd [4]: 4.17; Reversibility (pH=7.3, cc 300 mM): 0.56; pKd [5]: 4.59; Reversibility (pH=8.6, cc 300 mM): 0.23; pKd [6]: 4.75

Compound | class of pH-dependence pattern (cluster analysis) | Ratio Reversibility (pH 6.0/7.3, cc 300 mM) | Ratio Tau Offset (pH 6.0/7.3, cc 300 mM) | Ratio Tau Onset (pH 6.0/7.3, cc 300 mM) | log Ratio App Aff (pH 6.0/7.3, cc 300 mM) | Ratio Reversibility (pH 6.0/8.6, cc 300 mM) | Ratio Tau Offset (pH 6.0/8.6, cc 300 mM) | Ratio Tau Onset (pH 6.0/8.6, cc 300 mM) | log Ratio App Aff (pH 6.0/8.6, cc 300 mM) | τoffset (pH 6.0) | τonset (pH 6.0) | pKd [1] | Ratio Reversibility (pH 7.3/8.6, cc 300 mM) | Ratio Tau Offset (pH 7.3/8.6, cc 300 mM) | τoffset (pH 7.3) | τonset (pH 7.3) | pKd [2] | τoffset (pH 8.6) | τonset (pH 8.6) | pKd [3] | other results
CN(C)CCCN1c2ccccc2Sc2ccc(Cl)cc21 [chlorpromazine] | Class G | – | – | – | – | – | – | – | – | 23.60 s | 19.40 s | 4.43 | – | – | 28.40 s | 22.20 s | 4.50 | 33.00 s | 29.40 s | 4.76 | alkalization-induced recovery (neutral-to-alkalic solution exchange, in words): prominent alkalization-induced recovery; reversibility at all three pH values (pH 6.0, 7.3 and 8.6): below 0.6; Ratio Reversibility (pH 6.0/7.3, cc 30 mM): 1.906; Ratio Tau Offset (pH 6.0/7.3, cc 30 mM): 0.831; Ratio Tau Onset (pH 6.0/7.3, cc 30 mM): 0.874; log Ratio App Aff (pH 6.0/7.3, cc 30 mM): 0.077; Ratio Reversibility (pH 6.0/8.6, cc 30 mM): 1.432; Ratio Tau Offset (pH 6.0/8.6, cc 30 mM): 0.715; Ratio Tau Onset (pH 6.0/8.6, cc 30 mM): 0.660; log Ratio App Aff (pH 6.0/8.6, cc 30 mM): 0.339; Ratio Reversibility (pH 7.3/8.6, cc 30 mM): 0.751; Ratio Tau Offset (pH 7.3/8.6, cc 30 mM): 0.861; Ratio Tau Onset (pH 7.3/8.6, cc 30 mM): 0.755; log Ratio App Aff (pH 7.3/8.6, cc 30 mM): 0.261; Reversibility (pH=6.0, cc 30 mM): 0.53; pKd (pH=6.0, cc 30 mM, read-out: Apparent Affinity): 4.43; Reversibility (pH=7.3, cc 30 mM): 0.28; pKd (pH=7.3, cc 30 mM, read-out: Apparent Affinity): 4.50; Reversibility (pH=8.6, cc 30 mM): 0.37; pKd (pH=8.6, cc 30 mM, read-out: Apparent Affinity): 4.76
